Converted amounts (≈) assume the structure as drawn. Where two headings read alike, the source gives them in different places.
Tests used:
THP 1 cell line = assay: MTT cell proliferation assay; assay type: cell-based; conditions: Homo sapiens, read-out: MTT assay against THP 1 cell line % Inhibition
Protocol: Camptothecanoid 1, 2 and 3 and Phthalate were tested for their inhibitory effect on THP-1 cells. About 10,000 cells were taken per well in 96-well tissue culture plates and treated with test samples at 100 μg/ml for 72 h. Vehicle control (DMSO, 1%) and positive control (Paclitaxel, 100 μg/ml) was run simultaneously. Cell proliferation was assessed with 10 μl from 5 mg/ml stock solution of tetrazolium salt (MTT) dissolved in cell culture medium and subsequently incubated for additional 1 h at 37° C., 5% of CO2 and 95% humidity in incubator. The violet coloured formazan crystals formed were solubilized in 200 μl of isopropanol and incubated for another 4 h. The optical density was read on a micro plate reader (Spectramax plus384 plate reader, Molecular Devices Inc) at 490 nm filter against a blank prepared from cell-free wells. Absorbance given by cells treated with the carrier DMSO alone was taken as 100% cell growth (Table 2).

[1] = system: Mycobacterium tuberculosis Ra; assay: XTT assay, anti-mycobacterial activity; assay type: cell-based, M. tuberculosis H37Ra (ATCC 25177); conditions: for inhibition at 100 µg/mL: inhibition at 100 μg/ml, 8th day of incubation
Protocol: M. tuberculosis H37Ra (ATCC 25177) cells, obtained from MTCC (Chandigarh, India), were grown to logarithmic phase (O.D, 0.595˜1.0) in a defined medium (M. pheli medium) under aerobic conditions in a shaker incubator (Thermo Electron Corporation Model 481) maintained at 150 rpm and 37° C. After growth, the culture was sonicated for 2 min using water bath sonicator. Sonicated cells were used for inoculation in micro plate wells. […] of culture containing ˜1×10^5 cells/ml was added to each well of 96 well plates. Camptothecanoid 1, 2 and 3 and Phthalate, […], dissolved in DMSO (Sigma), were added to the wells to attain a final concentration of 100 µg/ml respectively for screening. Then, the plate was incubated in a CO2 incubator at 37° C. The plate was taken out on the 8th day of incubation to measure the viable cell counts. The optical density of the culture was measured before addition of XTT (Sigma) at 470 nm which was served as a blank for the MIC calculations. XTT, 200 µM, was added and incubated for 20 min at 37° C. after shaking for 1 min. After 20 min of incubation, 60 µM Menadione (Sigma) was added and incubated at 37° C. for 40 min after mixing of 1 min. Finally, the optical density of the suspension was measured at 470 nm by using microplate reader. Isoniazid (Sigma) was used as a positive control.

[2] = system: Sitophilus oryzae and Rhizopertha dominica; assay: whole plant or invertebrate; assay type: in vivo
Protocol: The bioefficacy of the extracts were screened against S. oryzae and R. dominica on wheat at 1000 ppm. Required quantity of the extract dissolved in 6 ml of the solvent was pipetted over 60 gm wheat, taken in a 500 ml beaker. The grain was stirred with a glass rod to obtain uniform application. The control grain received the solvent alone. The treated grain was spread on petridish and kept overnight (12 hrs) for the solvent to evaporate. The 60 gm grain was divided into three lots of 20 gm each, taken in test tubes 25 mm diameter and 95 mm long.
Fifteen unsexed adults, 1-2 weeks old, of the rice weevil, Sitophilus oryzae and the lesser grain borer, Rhizopertha dominica were seeded into the tubes separately. The tubes were covered with muslin held by rubber bands. The mortality of the test insects was recorded after 1, 3, 7, 14 and 21 days. After the last count, the insects were discarded and the grain incubated to obtain the F1 progeny. The number of emerging progeny was recorded every second day till the emergence was complete. The progeny/adult day was calculated by Kazmaier et. al method. The progeny/adult day corrects for the reduction in the number of progeny due to adult mortality. A significant reduction in the progeny/adult day compared to the control indicates Insect Growth Regulating (IGR) activity, which is presented in Tables 1, 2 and 3.
Camptothecin obtained from Sigma Aldrich was assayed on wheat against S. oryzae and R. dominica as in example 1.

[3] = THP-1, inhibition at 100 μg/ml, 72 h

Compound CC[C@H](OC1OC(CO)C(O)C(O)C1O)c1cc2n(c(=O)c1C)Cc1cc3ccccc3nc1-2 (stereo partly shown) [Camptothecanoid 1] has an inhibition at 100 µg/mL (THP 1 cell line; THP-1, 72 h) of 70.9% and an inhibition at 100 µg/mL [1] of 48.3%.

Compound CC[C@](O)(C(=O)O)c1cc2n(c(=O)c1COC(C)=O)Cc1cc3ccccc3nc1-2 [Camptothecanoid 2] has an inhibition at 100 µg/mL (THP 1 cell line; THP-1, 72 h) of 87.5% and an inhibition at 100 µg/mL [1] of 88.4%.

With CC[C@](O)(C(=O)O)c1cc2n(c(=O)c1COC(C)=O)Cc1cc3c(OC)cccc3nc1-2 [Camptothecanoid 3] the inhibition at 100 µg/mL (THP 1 cell line; THP-1, 72 h) was 90.2% and the inhibition at 100 µg/mL [1] was 59%.

For CC[C@@]1(O)C(=O)OCc2c1cc1n(c2=O)Cc2cc3ccccc3nc2-1 [Camptothecin], the “No. of F1 progeny” value ([2]; 6.25 ppm on wheat) was 00, the “No. of F1 progeny” value ([2]; 12.50 ppm on wheat) was 00 and the “adult mortality (in words)” value ([2]; 12.50 ppm on wheat) was “no adult mortality”. For the same compound, the “No. days for 100% kill” value ([2]; 25 ppm on wheat) was 21 days, the “No. of F1 progeny” value ([2]; 25 ppm on wheat) was 00 and the “No. days for 100% kill” value ([2]; 50 ppm on wheat) was 14 days. The “No. of F1 progeny” value ([2]; 50 ppm on wheat) was 00, the “No. days for 100% kill” value ([2]; 75 ppm on wheat) was 7 days and the “No. of F1 progeny” value ([2]; 75 ppm on wheat) was 00. For the same compound, the “No. days for 100% kill” value ([2]; 100 ppm on wheat) was 3 days, the “No. of F1 progeny” value ([2]; 100 ppm on wheat) was 00 and the mortality at 6.25 ppm ([2]; Sitophilus oryzae) was 0%. It also gave a mortality at 12.5 ppm ([2]; Sitophilus oryzae) of 0%, a mortality at 25 ppm ([2]; Sitophilus oryzae) of 100% and a mortality at 50 ppm ([2]; Sitophilus oryzae) of 100%. For the same compound, the mortality at 75 ppm ([2]; Sitophilus oryzae) was 100%, the mortality at 100 ppm ([2]; Sitophilus oryzae) was 100% and the inhibition at 12.5 ppm ([2]; Sitophilus oryzae, read-out: inhibition of F1 progeny) was 100%.

NNC(=O)c1ccncc1 [Isoniazid] showed an IC90 ([1]; read-out: IC90, XTT assay Mycobacterium tuberculosis Ra) of 0.05 µg/mL (≈ 0.365 µM).

CC(=O)O[C@H]1C(=O)[C@@]2(C)[C@H]([C@H](OC(=O)c3ccccc3)[C@]3(O)C[C@H](OC(=O)[C@H](O)[C@@H](NC(=O)c4ccccc4)c4ccccc4)C(C)=C1C3(C)C)[C@]1(OC(C)=O)CO[C@@H]1C[C@@H]2O [Paclitaxel] was tested, and the inhibition at 100 µg/mL (THP 1 cell line; [3]) was 61%.

In the case of CCCCCCCC(CC)COC(=O)c1ccccc1C(=O)OCC(CC)CCCCCCC (stereo not shown) [Phthalate], the inhibition at 100 µg/mL (THP 1 cell line; [3]) was 20.1% and the inhibition at 100 µg/mL [1] was 45.6%.
